Among the data in ChEMBL document CHEMBL1140961, “Synthesis and biological activity of some new benzoxazoles” (2008) are MIC values, retold here.

Holding throughout (assay type): functional
Test [1] has as its system Staphylococcus aureus. The experiment in a line: Antimicrobial activity against Staphylococcus aureus isolate after 24 hrs by disk diffusion method. (A growth-free zone around the sample is the usual read-out of agar diffusion tests.)
The test system of test [2] is Klebsiella pneumoniae. In words: Antimicrobial activity against Klebsiella pneumoniae after 24 hrs by disk diffusion method.
In another test the test system is Pseudomonas aeruginosa. In words: Antimicrobial activity against Pseudomonas aeruginosa ATCC […] after 24 hrs by disk diffusion method. The following applies: ATCC 25853, 24 h.
Test [3] concerns Escherichia coli. In words: Antimicrobial activity against Escherichia coli isolate after 24 hrs by disk diffusion method.
For test [4], the system named is Klebsiella pneumoniae. In words: Antimicrobial activity against Klebsiella pneumoniae RSHM 574 after 24 hrs by disk diffusion method.
In test [5] the test system is Bacillus subtilis. In words: Antimicrobial activity against Bacillus subtilis ATCC 6633 after 24 hrs by disk diffusion method. The following applies: ATCC 6633, 24 h.
For test [6], the system named is Candida albicans. The experiment in a line: Antimicrobial activity against Candida albicans ATCC 10231 after 24 to 48 hrs after 24 hrs by disk diffusion method.
The subject of test [7] is Escherichia coli. In words: Antimicrobial activity against Escherichia coli ATCC 25922 after 24 hrs by disk diffusion method. The following applies: ATCC 25922, 24 h.
The test system of test [8] is Candida albicans. In words: Antimicrobial activity against Candida albicans isolate after 24 to 48 hrs after 24 hrs by disk diffusion method.
For test [9], the system named is Staphylococcus aureus. The experiment in a line: Antimicrobial activity against Staphylococcus aureus ATCC 25923 after 24 hrs by disk diffusion method. The following applies: ATCC 25923, 24 h.
Test [10] has as its system Bacillus subtilis. The experiment in a line: Antimicrobial activity against Bacillus subtilis isolate after 24 hrs by disk diffusion method.

Converted amounts (≈) assume the structure as drawn.

By MIC is commonly meant the lowest concentration that inhibits growth of the organism. Low readings indicate greater potency, high ones weaker potency.

In the case of `CCS(=O)(=O)c1ccc2oc(-c3ccc(Cl)cc3)nc2c1`, the MIC against Staphylococcus aureus [1] was 125 µg/mL (≈ 388 µM); in the test on Klebsiella pneumoniae [2], 125 µg/mL (≈ 388 µM); against Pseudomonas aeruginosa, 62.5 µg/mL (≈ 194 µM); against Escherichia coli [3] it was 62.5 µg/mL (≈ 194 µM); against Klebsiella pneumoniae [4], 62.5 µg/mL (≈ 194 µM); in the test on Bacillus subtilis [5] it was 7.81 µg/mL (≈ 24.3 µM). Also, the MIC in the test with Candida albicans [6] is 125 µg/mL (≈ 388 µM); in the test with Escherichia coli [7], 62.5 µg/mL (≈ 194 µM); in the test with Candida albicans [8], 15.6 µg/mL (≈ 48.5 µM); against Staphylococcus aureus [9], 125 µg/mL (≈ 388 µM); in the test with Bacillus subtilis [10], 31.2 µg/mL (≈ 97.1 µM).

Regarding `CCS(=O)(=O)c1ccc2oc(-c3ccc(F)cc3)nc2c1`, the MIC against Staphylococcus aureus [1] is 125 µg/mL (≈ 409 µM); in the test on Klebsiella pneumoniae [2], 125 µg/mL (≈ 409 µM); against Pseudomonas aeruginosa, 62.5 µg/mL (≈ 205 µM); in the test with Escherichia coli [3] it was 62.5 µg/mL (≈ 205 µM); in the test on Klebsiella pneumoniae [4], 31.2 µg/mL (≈ 102 µM); with Bacillus subtilis [5], 31.2 µg/mL (≈ 102 µM). In addition, the MIC amounted to 125 µg/mL (≈ 409 µM) against Candida albicans [6]; 62.5 µg/mL (≈ 205 µM) in the test with Escherichia coli [7]; 31.2 µg/mL (≈ 102 µM) in the test on Candida albicans [8]; 125 µg/mL (≈ 409 µM) against Staphylococcus aureus [9]; 31.2 µg/mL (≈ 102 µM) in the test on Bacillus subtilis [10].

As for `CCS(=O)(=O)c1ccc2oc(-c3ccccc3F)nc2c1`, the MIC against Staphylococcus aureus [1] came out at 125 µg/mL (≈ 409 µM); in the test on Klebsiella pneumoniae [2] it was 125 µg/mL (≈ 409 µM); in the test with Pseudomonas aeruginosa it was 62.5 µg/mL (≈ 205 µM); with Escherichia coli [3], 250 µg/mL (≈ 819 µM); with Klebsiella pneumoniae [4], 31.2 µg/mL (≈ 102 µM); with Bacillus subtilis [5], 62.5 µg/mL (≈ 205 µM). In addition, the MIC is 62.5 µg/mL (≈ 205 µM) against Candida albicans [6]; 62.5 µg/mL (≈ 205 µM) in the test on Escherichia coli [7]; 62.5 µg/mL (≈ 205 µM) with Candida albicans [8]; 125 µg/mL (≈ 409 µM) against Staphylococcus aureus [9]; 31.2 µg/mL (≈ 102 µM) in the test on Bacillus subtilis [10].
